Article PMC5681642

What was measured:
BTA121 = target: T1, BTA121 (Borrelia turicatae, UniProt A0A0R9P931); experiment: radioligand binding, Q-sepharose separation, scintillation counting
T1 construct: signal peptide and further N-terminal residues removed, putative PARP domain kept; N-terminal dodeca-His tag cut with TEV protease; E. coli BL21-CodonPlus(DE3)-RIPL; predominantly monomer, some dimer
Source text: radioligand binding, Q-sepharose separation, scintillation counting on BTA121 | BTA121 binds palmitate with micromolar Kd

[1] = target: Recombinant BTA121 (Borrelia turicatae), dodeca-His tag cleaved (Borrelia turicatae); experiment: SEC; Phenomenex Yarra 3 µ SEC-2000 HPLC column, 1.0 mg/mL, 50 µg loaded, room temperature, 0.5 mL/min; molecular weight estimated with Bio-rad gel filtration standard

Row | Molecule | Kd (BTA121) [µM] | stoichiometry N [1]
1 | CCCCCCCCCCCCCCCC(=O)O [palmitate] | 229 | 
2 | Recombinant BTA121 (Borrelia turicatae), dodeca-His tag cleaved (from UniProt A0A0R9P931 1-445) (natural protein) |  | 2
